This assay is described as follows: Inhibition of Enterococcus faecium AAC(6')Ii.
Regarding `CC(C)(COP(=O)(O)OP(=O)(O)OC[C@H]1O[C@@H](n2cnc3c(N)ncnc32)[C@H](O)[C@@H]1OP(=O)(O)O)[C@@H](O)C(=O)NCCC(=O)NCCSCC(=O)NC[C@H]1O[C@H](O[C@H]2[C@H](O)[C@@H](O)[C@H](N)C[C@@H]2N)[C@H](N)[C@@H](O)[C@@H]1O` [[(2R,3S,4R,5R)-5-(6-amino-9H-purin-9-yl)-4-hydroxy-3-(phosphonatooxy)oxolan-2-yl]methyl {[(3R)-3-({2-[(2-{[({[(2R,3S,4R,5R,6R)-5-amino-6-{[(1R,2R,3S,4R,6S)-4,6-diamino-2,3-dihydroxycyclohexyl]oxy}-3,4-dihydroxyoxan-2-yl]methyl}carbamoyl)methyl]sulfanyl}ethyl)carbamoyl]ethyl}carbamoyl)-3-hydroxy-2,2-dimethylpropylphosphonato]oxy}phosphonate], the Ki – broadly, the equilibrium dissociation constant of an inhibitor or competing ligand from its target – is 0.076 µM. For `CC(C)(COP(=O)(O)OP(=O)(O)OC[C@H]1O[C@@H](n2cnc3c(N)ncnc32)[C@H](O)[C@@H]1OP(=O)(O)O)[C@@H](O)C(=O)NCCC(=O)NCCSCCCC(=O)NC[C@H]1O[C@H](O[C@H]2[C@H](O)[C@@H](O)[C@H](N)C[C@@H]2N)[C@H](N)[C@@H](O)[C@@H]1O` [truncated aminoglycoside-coenzyme A bisubstrate analogue 1c], the Ki is 0.161 µM. In the case of `CC(C)(COP(=O)(O)OP(=O)(O)OC[C@H]1O[C@@H](n2cnc3c(N)ncnc32)[C@H](O)[C@@H]1OP(=O)(O)O)[C@@H](O)C(=O)NCCC(=O)NCCSCCC(=O)NC[C@H]1O[C@H](O[C@H]2[C@H](O)[C@@H](O)[C@H](N)C[C@@H]2N)[C@H](N)[C@@H](O)[C@@H]1O` [truncated aminoglycoside-coenzyme A bisubstrate analogue 1b] it was 0.043 µM. In the case of `CC(C)(COP(=O)(O)OP(=O)(O)OC[C@H]1O[C@@H](n2cnc3c(N)ncnc32)[C@H](O)[C@@H]1OP(=O)(O)O)[C@@H](O)C(=O)NCCC(=O)NCCSCC(=O)NC[C@H]1O[C@H](O[C@H]2[C@H](O)[C@@H](O[C@H]3O[C@H](CO)[C@@H](O)[C@H](N)[C@H]3O)[C@H](N)C[C@@H]2N)[C@H](O)[C@@H](O)[C@@H]1O` it was 0.11 µM.

As for `CC(C)(COP(=O)(O)OP(=O)(O)OC[C@H]1O[C@@H](n2cnc3c(N)ncnc32)[C@H](O)[C@@H]1OP(=O)(O)O)[C@@H](O)C(=O)NCCC(=O)NCCSCC(=O)NC[C@H]1O[C@H](O[C@H]2[C@H](O)[C@@H](O[C@H]3O[C@H](CO)[C@@H](O)[C@H](O)[C@H]3O[C@@H]3O[C@H](CO)[C@@H](O)[C@H]3O)[C@H](N)C[C@@H]2N)[C@H](N)[C@@H](O)[C@@H]1O` [truncated aminoglycoside-coenzyme A bisubstrate analogue 3], the Ki is 0.119 µM. With `CC(C)(COP(=O)(O)OP(=O)(O)OC[C@H]1O[C@@H](n2cnc3c(N)ncnc32)[C@H](O)[C@@H]1OP(=O)(O)O)[C@@H](O)C(=O)NCCC(=O)NCCSCCCCC(=O)NC[C@H]1O[C@H](O[C@H]2[C@H](O)[C@@H](O)[C@H](N)C[C@@H]2N)[C@H](N)[C@@H](O)[C@@H]1O` [[(2R,3S,4R,5R)-5-(6-amino-9H-purin-9-yl)-4-hydroxy-3-(phosphonatooxy)oxolan-2-yl]methyl {[(3R)-3-({2-[(2-{[4-({[(2R,3S,4R,5R,6R)-5-amino-6-{[(1R,2R,3S,4R,6S)-4,6-diamino-2,3-dihydroxycyclohexyl]oxy}-3,4-dihydroxyoxan-2-yl]methyl}carbamoyl)butyl]sulfanyl}ethyl)carbamoyl]ethyl}carbamoyl)-3-hydroxy-2,2-dimethylpropylphosphonato]oxy}phosphonate], the Ki turned out to be 8 µM.

The values above are taken from BindingDB's records for doi:10.1021/jm060732n (Mcgill University, 2006).
